This assay has as its target T1, E. coli CsgA (Escherichia coli, UniProt P28307).
T1 construct: made in house; host or cells: E. coli NEB 3016 slyD::kan, pET11d
Put plainly: In vitro ThioflavinT assay of CsgA aggregation (CsgA ThT Assay). In kind it is biochemical. The following applies: for remaining activity at 25 µM: compound 25 μM; for remaining activity at 100 µM: compound 100 μM. How it is done: In vitro ThioflavinT assay to determine effects of compounds on CsgA aggregation. To assess the effects of compounds on aggregation of E. coli CsgA, a cell-free assay was performed using purified CsgA and Thioflavin T. In the assay, histidine-tagged CsgA was over-expressed in E. coli NEB 3016 slyD::kan cells harboring a pET11d vector containing a C-terminal 6× His tag. Following growth in rich media, CsgA production is induced at an OD600 of approximately 1.0 by addition of 0.5 mM IPTG (isopropyl beta-D-1-thiogalactopyranoside) followed by incubation at 37° C. for 1-4 hours with shaking at 200-250 rpm. Bacteria were resuspended in 8 M guanidine hydrochloride in 50 mM potassium phosphate buffer, pH 7.3 and lysed by sonication on ice using three 20 second intervals. The resulting lysate was incubated on a platform rocker for 1 hour at room temperature. After centrifugation at 10,000×g for 20 minutes, the supernatant was further sonicated on ice for three 20 second intervals and then incubated with nickel-nitrilotriacetic acid resin (Sigma) at room temperature for 1 hour in a 50 mL conical tube on a platform rocker. The resin was washed and pelleted 5 times with 45 mL 8 M guanidine in 50 mM potassium phosphate buffer pH 7.3. The resin was further washed and pelleted two times with 8 M guanidine hydrochloride in 50 mM potassium phosphate buffer pH 7.3 containing 12.5 mM imidazole. Purified CsgA protein was eluted two times with 5 mL of 6-8 M guanidine hydrochloride in 50 mM potassium phosphate buffer, pH 7.3 containing 250 mM imidazole. The eluted protein was aliquoted with 150 μL per aliquot, snap frozen in liquid nitrogen, and stored at −80 C. In order to obtain monomeric CsgA, the purified CsgA protein was thawed and passed through two pre-chilled desalting columns (Zeba) to remove imidazole and guanidine. The buffer exchanged protein was loaded onto a 30-kDa centrifugal filter unit (Amicon) and spun for 30 minutes at 7500×g to remove dimers and other oligomers. Protein concentration was assessed by the NanoDrop technique (Thermo Scientific), as is familiar to one skilled in the art. The CsgA aggregation assay was conducted in 96-well black non-binding surface or white untreated microplates with 20-40 μM ThioflavinT, 50 mM potassium phosphate buffer pH 7.3, 1% DMSO, CsgA at 2-20 μM, and compounds at 3.125-200 uM. The vehicle control wells contain all components of the assay except test compounds and represent the level of CsgA aggregation in the absence of any inhibitor or accelerator. Plates were incubated at room temperature in a Tecan Nano F200 plate reader with excitation at 438 nm using a 439 nm filter with a bandwidth of 8 nm, and emission at 495 nm with a 490 nm filter with a bandwidth of 10 nm, or in a SpectraMax M5, SpectraMax M2 or SpectraMax® i3X (Molecular Devices, San Jose, Calif.) spectrophotometer with excitation at 438 nm and emission at 495 nm. During the assay, plates were shaken initially for 5 seconds and subsequently for 3 seconds prior to fluorescent readings. Readings were performed every 15 minutes for up to 1005 minutes. The effect of compounds on CsgA aggregation in the assay was determined with data from 0-17 hours. Fluorescence values for each compound with CsgA were first adjusted by subtracting the average fluorescence of the compound in the absence of CsgA or in the presence of CsgA and compound at time 0 or 15 minutes. The data were analyzed in several ways:
1. The adjusted ThT fluorescence values were normalized by dividing them by the average fluorescence in the vehicle control wells containing CsgA. The median normalized fluorescence from 6-6.5 hours or 8-9 hours with the compound was expressed as a percentage of the median fluorescence observed in vehicle controls over the same time period. Percent inhibition of CsgA aggregation by a compound was determined by subtracting the percent average fluorescence with the compound relative to the vehicle controls from 100%. […]

Setting [1] is: read-out: CsgA ThT Assay (2 μM CsgA) % Control Bmax 25 μM, activity range, class symbol, CsgA 2 μM, white plates.
Where [2] appears, read: read-out: CsgA ThT Assay (2 μM CsgA) % Control Bmax 25 μM, mean Bmax as percentage of DMSO control, CsgA 2 μM, white plates.
Setting [3] is: read-out: CsgA ThT Assay (2 μM CsgA) % Control Bmax 100 μM, activity range, class symbol, CsgA 2 μM, white plates.
Setting [4] is: read-out: CsgA ThT Assay (2 μM CsgA) % Control Bmax 100 μM, mean Bmax as percentage of DMSO control, CsgA 2 μM, white plates.
The mark [5] stands for this setting: read-out: CsgA ThT Assay (10 μM CsgA) % Control AUC at 1005 minutes, 25 μM (activity range), CsgA 10 μM, black plates, 1005 minutes, class symbol.
Setting [6] is: read-out: CsgA ThT Assay (10 μM CsgA) % Control AUC at 1005 minutes, 25 μM, mean AUC as % of DMSO control, CsgA 10 μM, black plates, 1005 minutes.
Setting [7] is: read-out: CsgA ThT Assay (10 μM CsgA) % Control AUC at 1005 minutes, 100 μM (activity range), CsgA 10 μM, black plates, 1005 minutes, class symbol.
The mark [8] stands for this setting: read-out: CsgA ThT Assay (10 μM CsgA) % Control AUC at 1005 minutes, 100 μM, mean AUC as % of DMSO control, CsgA 10 μM, black plates, 1005 minutes.

Where two headings read alike, the source gives them in different places.

T1 sequence (P28307 23-151): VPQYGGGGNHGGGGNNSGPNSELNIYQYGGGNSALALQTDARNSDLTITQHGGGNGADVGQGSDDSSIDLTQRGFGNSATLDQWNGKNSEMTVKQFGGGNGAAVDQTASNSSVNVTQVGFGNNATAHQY

With `CCCN1CC(C(=O)O)n2c(c(-c3cccc(C(F)(F)F)c3)c(Cc3cccc4ccccc34)c(NC(C)C)c2=O)S1(=O)=O` (centres unmarked) [Compound 149, 7-(isopropylamino)-8-(naphthalen-1-ylmethyl)-6-oxo-2-propyl-9-(3-(trifluoromethyl)phenyl)-3,4-dihydro-2H,6H-pyrido[1,2-e][1,2,5]thiadiazine-4-carboxylic acid 1,1-dioxide], the remaining activity at 25 µM reads like this: under setting [1], more than 60%; under setting [2], 98%. For the same compound, the remaining activity at 100 µM was more than 60% under setting [3] and 115% under setting [4].

As to `Cn1cc(C(=O)O)n2c(=O)cc(Cc3cccc4ccccc34)c(-c3cccc(C(F)(F)F)c3)c12` [Compound 111, 1-methyl-7-(naphthalen-1-ylmethyl)-5-oxo-8-(3-(trifluoromethyl)phenyl)-1,5-dihydroimidazo[1,2-a]pyridine-3-carboxylic acid], the remaining activity at 25 µM is, setting by setting: under setting [5], more than 60%; under setting [6], 98%. In addition, the remaining activity at 100 µM is more than 60% under setting [7] and 95% under setting [8].

Turning to `O=C(O)C1CN(Cc2ccccc2)c2c(-c3cccc(C(F)(F)F)c3)c(CN3CCCCC3)c(Cl)c(=O)n21` (centres unmarked) [Compound 218, 1-benzyl-6-chloro-5-oxo-7-(piperidin-1-ylmethyl)-8-(3-(trifluoromethyl)phenyl)-1,2,3,5-tetrahydroimidazo[1,2-a]pyridine-3-carboxylic acid], the remaining activity at 25 µM was more than 60% under setting [1] and 115% under setting [2]. The remaining activity at 100 µM by setting is: under setting [3], more than 60%; under setting [4], 109%.

On to `O=C(O)[C@H]1CNS(=O)(=O)c2c(-c3cccc(C(F)(F)F)c3)c(Cc3cccc4ccccc34)cc(=O)n21` (single isomer, unassigned) [Compound 009b], for which the remaining activity at 25 µM under setting [5] was more than 60% and the remaining activity at 25 µM under setting [6] is 67%. The remaining activity at 100 µM under setting [7] is 31 to 60% and the remaining activity at 100 µM under setting [8] turned out to be 37%.

On to `CCc1c(Cc2cccc3ccccc23)c(-c2cccc(C(F)(F)F)c2)c2n(c1=O)C(C(=O)O)CN(C)S2(=O)=O` (centres unmarked) [Compound 076, 7-ethyl-2-methyl-8-(naphthalen-1-ylmethyl)-6-oxo-9-(3-(trifluoromethyl)phenyl)-3,4-dihydro-2H,6H-pyrido[1,2-e][1,2,5]thiadiazine-4-carboxylic acid 1,1-dioxide], for which the remaining activity at 25 µM under setting [5] was 11 to 31% and the remaining activity at 25 µM under setting [6] is 17%. Further, the remaining activity at 100 µM is, setting by setting: under setting [7], 11 to 31%; under setting [8], 14%.

Turning to `CCCOc1c(Cc2cccc3ccccc23)c(-c2cccc(C(F)(F)F)c2)c2n(c1=O)C(C(=O)O)CN(CCC)S2(=O)=O` (centres unmarked) [Compound 147, 8-(naphthalen-1-ylmethyl)-6-oxo-7-propoxy-2-propyl-9-(3-(trifluoromethyl)phenyl)-3,4-dihydro-2H,6H-pyrido[1,2-e][1,2,5]thiadiazine-4-carboxylic acid 1,1-dioxide], the remaining activity at 25 µM is, setting by setting: under setting [1], more than 60%; under setting [2], 101%. Also, the remaining activity at 100 µM runs as follows: under setting [3], more than 60%; under setting [4], 139%.

Regarding `O=C(O)C1CN(C(=O)OCc2ccccc2)c2c(-c3cccc(C(F)(F)F)c3)c(Cc3cccc4ccccc34)cc(=O)n21` (centres unmarked) [Compound 103, 1-((benzyloxy)carbonyl)-7-(naphthalen-1-ylmethyl)-5-oxo-8-(3-(trifluoromethyl)phenyl)-1,2,3,5-tetrahydroimidazo[1,2-a]pyridine-3-carboxylic acid], the remaining activity at 25 µM was more than 60% under setting [5] and 95% under setting [6]. In addition, the remaining activity at 100 µM is, setting by setting: under setting [7], more than 60%; under setting [8], 102%.

For `O=C(O)[C@@H]1CNS(=O)(=O)c2c(-c3cccc(C(F)(F)F)c3)c(Cc3cccc4ccccc34)cc(=O)n21` (single isomer, unassigned) [Compound 009a], the remaining activity at 25 µM was 31 to 60% under setting [5] and 46% under setting [6]. Further, the remaining activity at 100 µM under setting [7] lay within 11 to 31% and the remaining activity at 100 µM under setting [8] is 17%.

With `CCCN1CC(C(=O)O)n2c(c(-c3cccc(C(F)(F)F)c3)c(Cc3cccc4ccccc34)c(OC(C)C)c2=O)S1(=O)=O` (centres unmarked) [Compound 148, 7-isopropoxy-8-(naphthalen-1-ylmethyl)-6-oxo-2-propyl-9-(3-(trifluoromethyl)phenyl)-3,4-dihydro-2H,6H-pyrido[1,2-e][1,2,5]thiadiazine-4-carboxylic acid 1,1-dioxide], the remaining activity at 25 µM by setting is: under setting [1], more than 60%; under setting [2], 79%. In addition, the remaining activity at 100 µM under setting [3] is more than 60% and the remaining activity at 100 µM under setting [4] is 113%.

Consider `O=C(O)CCCCN1CC(C(=O)O)n2c(c(-c3cccc(C(F)(F)F)c3)c(Cc3cccc4ccccc34)cc2=O)S1(=O)=O` (centres unmarked) [Compound 039, 2-(4-carboxybutyl)-8-(naphthalen-1-ylmethyl)-6-oxo-9-(3-(trifluoromethyl)phenyl)-3,4-dihydro-2H,6H-pyrido[1,2-e][1,2,5]thiadiazine-4-carboxylic acid 1,1-dioxide], for which the remaining activity at 25 µM by setting is: under setting [5], more than 60%; under setting [6], 92%. For the same compound, the remaining activity at 100 µM is 11 to 31% under setting [7] and 24% under setting [8].

With `CCCN1CC(C(=O)O)n2c(c(-c3cccc(C(F)(F)F)c3)c(Cc3cccc4ccccc34)c(OCc3ccccc3)c2=O)S1(=O)=O` (centres unmarked) [Compound 146, 7-(benzyloxy)-8-(naphthalen-1-ylmethyl)-6-oxo-2-propyl-9-(3-(trifluoromethyl)phenyl)-3,4-dihydro-2H,6H-pyrido[1,2-e][1,2,5]thiadiazine-4-carboxylic acid 1,1-dioxide], the remaining activity at 25 µM was more than 60% under setting [1] and 113% under setting [2]. For the same compound, the remaining activity at 100 µM was more than 60% under setting [3] and 63% under setting [4].

Source of the values: patent publication US20230131899A1, “INHIBITORS OF MICROBIALLY INDUCED AMYLOID” (Axial Therapeutics, Inc., priority 2020, published 2023).
